According to PMC12186844 (ACS Chemical Neuroscience, 2025):
Like-named read-outs stand apart in the source and are kept apart here.

What was measured:
[1] = molecular target: SNAP-D2SR D80^2.50A (Homo sapiens, UniProt P14416, D80A); experiment: cell membrane [3H]spiperone assay
Protocol: (§1) Flp-In-CHO cells stably expressing the wild-type or mutant DRs were grown to 90% confluence in 175 cm^2 cell culture flasks. The cells were harvested in PBS containing 2 mM EDTA and centrifuged at 300g for 3 min. The resulting pellet was resuspended in ice-cold assay buffer (20 mM HEPES, 100 mM NaCl, 6 mM MgCl2, 1 mM EGTA, and 1 mM EDTA, pH 7.4), and the centrifugation step was repeated. The intact cell pellet was then resuspended in assay buffer and homogenized using a Polytron homogenizer. After centrifugation (1000g, 10 min), the pellet was discarded, and the supernatant was recentrifuged at 30,000g for 1 h at 4 °C using a Sorvall Evolution RC ultracentrifuge (Thermo Scientific). The resulting pellet was resuspended in assay buffer and stored in 250 μL aliquots at −80 °C. Membrane protein concentration was determined using a Pierce’s BCA protein assay kit (Thermo Fisher, Melbourne).
(§2) [^3H]­Spiperone binding experiments using cell membranes were conducted in a 200 μL reaction volume in assay buffer (20 mM HEPES, 100 mM NaCl, 6 mM MgCl2, 1 mM EGTA, and 1 mM EDTA, pH 7.4) containing 100 μM GppNHp and 0.1% ascorbic acid in 96-well plates. […] In all cases, nonspecific binding was determined in the presence of 10 μM haloperidol. […] Filter bound radioactivity was detected as a chemiluminescence after the addition of MicroScint-20 (Revvity) in a MicroBeta plate counter (Revvity). […]

[2] = molecular target: SNAP-D2SR WT (Homo sapiens, UniProt P14416); experiment: functional cAMP assay, BRET biosensor; type: cell-based
Protocol: (§3) Flp-In-CHO cells stably coexpressing the CAMYEL biosensor and DRs were plated into white 96-well CulturPlates (Revvity) and grown overnight. The cells were equilibrated in Hank’s balanced salt solution (HBSS) at 37 °C (or 25 °C when indicated) before starting the experiment. The cells were costimulated with the agonists and 10 μM forskolin for the indicated time frames when the BRET readings were captured. Coelenterazine (Nanolight Technology, AZ) was added at a final concentration of 5 μM at least 3 min prior to measurement. […] Net BRET was determined by subtraction of the vehicle control coadded with 10 μM forskolin.
(§4) Dose–response curves were fitted using the following three-parameter equation: response=bottom+top−bottom/1+10^(logEC50−log[A]) 5 where top and bottom represent the maximal and minimal asymptote of the dose response curve, [A] is the molar concentration of the agonist, and EC50 is the molar concentration of the agonist required to give a response half-way between bottom and top.

[3] = molecular target: SNAP-D2SR T398^7.54A (Homo sapiens, UniProt P14416, T427A); experiment: functional cAMP assay, BRET biosensor; type: cell-based; parameters: expressed in transfected cells
Sequence of SNAP-D2SR T398^7.54A (P14416 1-414 isoform P14416-2 T398A): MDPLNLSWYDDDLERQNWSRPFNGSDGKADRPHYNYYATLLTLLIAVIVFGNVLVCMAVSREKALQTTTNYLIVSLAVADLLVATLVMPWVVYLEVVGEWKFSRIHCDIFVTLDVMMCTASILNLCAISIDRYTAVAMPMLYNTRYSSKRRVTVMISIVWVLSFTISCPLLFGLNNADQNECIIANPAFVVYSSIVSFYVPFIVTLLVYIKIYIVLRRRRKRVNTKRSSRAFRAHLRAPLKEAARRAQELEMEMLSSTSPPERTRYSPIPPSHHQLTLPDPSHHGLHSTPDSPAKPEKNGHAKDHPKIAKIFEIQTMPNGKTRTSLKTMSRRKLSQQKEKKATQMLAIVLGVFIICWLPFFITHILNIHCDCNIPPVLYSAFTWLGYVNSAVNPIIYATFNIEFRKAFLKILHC
Protocol: as §3, §4

[4] = molecular target: SNAP-D2SR E95^2.65A (Homo sapiens, UniProt P14416, E95A); experiment: functional cAMP assay, BRET biosensor; type: cell-based
Sequence of SNAP-D2SR E95^2.65A (P14416 1-414 isoform P14416-2 E95A): as the sequence (P14416 1-414 isoform P14416-2 T398A) above, with E95A, A398T counted along it
Protocol: Flp-In-CHO cells stably coexpressing the CAMYEL biosensor and DRs were plated into white 96-well CulturPlates (Revvity) and grown overnight. The cells were equilibrated in Hank’s balanced salt solution (HBSS) at 37 °C (or 25 °C when indicated) before starting the experiment. The cells were costimulated with the agonists and 10 μM forskolin for the indicated time frames when the BRET readings were captured. Coelenterazine (Nanolight Technology, AZ) was added at a final concentration of 5 μM at least 3 min prior to measurement. […] Net BRET was determined by subtraction of the vehicle control coadded with 10 μM forskolin. For phenoxybenzamine alkylation experiments, the cells were treated with 0.1, 0.3, or 1 μM phenoxybenzamine (Sigma-Aldrich) diluted in HBSS and equilibrated at 37 °C for 30 min prior to the commencement of the assay.
as §4

[5] = molecular target: D4.4R (Homo sapiens, UniProt P21917); experiment: cell membrane [3H]spiperone binding assay
Sequence of D4.4R (P21917 whole entry): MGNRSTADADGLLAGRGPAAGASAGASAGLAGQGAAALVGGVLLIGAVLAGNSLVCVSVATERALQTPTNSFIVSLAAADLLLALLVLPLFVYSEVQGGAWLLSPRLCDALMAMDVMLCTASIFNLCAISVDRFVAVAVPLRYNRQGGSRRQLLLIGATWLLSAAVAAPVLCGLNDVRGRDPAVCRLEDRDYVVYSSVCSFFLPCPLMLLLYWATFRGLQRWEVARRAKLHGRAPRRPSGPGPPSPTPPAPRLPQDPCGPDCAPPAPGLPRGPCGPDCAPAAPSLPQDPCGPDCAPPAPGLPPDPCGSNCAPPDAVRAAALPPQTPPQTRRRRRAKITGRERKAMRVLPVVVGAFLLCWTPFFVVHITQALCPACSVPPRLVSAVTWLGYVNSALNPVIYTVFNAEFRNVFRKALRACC
Protocol: as §1
[^3H]­Spiperone binding experiments using cell membranes were conducted in a 200 μL reaction volume in assay buffer (20 mM HEPES, 100 mM NaCl, 6 mM MgCl2, 1 mM EGTA, and 1 mM EDTA, pH 7.4) containing 100 μM GppNHp and 0.1% ascorbic acid in 96-well plates. […] In all cases, nonspecific binding was determined in the presence of 10 μM haloperidol. […] Filter bound radioactivity was detected as a chemiluminescence after the addition of MicroScint-20 (Revvity) in a MicroBeta plate counter (Revvity).

[6] = molecular target: SNAP-D2SR I73^2.43A (Homo sapiens, UniProt P14416, I73A); experiment: cell membrane [3H]spiperone assay
Sequence of SNAP-D2SR I73^2.43A (P14416 1-414 isoform P14416-2 I73A): as the sequence (P14416 1-414 isoform P14416-2 T398A) above, with I73A, A398T counted along it
Protocol: as §1, §2

Sequence of SNAP-D2SR WT (P14416 1-414 isoform P14416-2): as the sequence (P14416 1-414 isoform P14416-2 T398A) above, with A398T counted along it
Sequence of SNAP-D2SR D80^2.50A (P14416 1-414 isoform P14416-2 D80A): as the sequence (P14416 1-414 isoform P14416-2 T398A) above, with D80A, A398T counted along it

fold shift + 10 μM PAM ([1]; shift of DA IC50): 0.9 fold
ΔpIC50 + 10 μM PAM ([1]; shift of DA pIC50): –0.04 ± 0.27
D2 PAM2 log τ [2]: 0.06 ± 0.05
D2 PAM2 pKB [2]: 5.02 ± 0.14
D2 PAM2 τ [2]: 1
Logτ ([2]; S13): 0.14 ± 0.10
pKB ([2]; S13): 4.93 ± 0.22
τ ([2]; S13): 1.38
Kb ([2]; S13, read-out: KB): 11.7 µM
Logαβ ([2]; S13, with DA): 1.60 ± 0.25
αβ ([2]; S13, with DA): 39.8
Kb ([2]; Table 2, read-out: D2 PAM2 KB (converted)): 9.5 µM
D2 PAM2 log αβ ([2]; with DA): 1.25 ± 0.14
D2 PAM2 αβ ([2]; with DA): 18
D2 PAM2 log τ [3]: –1.40 ± 0.22
D2 PAM2 pKB [3]: 5.35 ± 0.17
D2 PAM2 τ [3]: 0.04
fold decrease in cooperativity with DA ([3]; cAMP): 6 fold
Kb ([3]; read-out: D2 PAM2 KB (converted)): 4 µM
D2 PAM2 log αβ ([3]; with DA): 0.46 ± 0.05
D2 PAM2 αβ ([3]; with DA): 2.9
Kb [4]: 3.2 µM
Logτ [4]: -0.46 ± 0.07
pKB [4]: 5.49 ± 0.12
τ [4]: 0.35
Logαβ ([4]; with DA): 1.07 ± 0.10
αβ ([4]; with DA): 11.7
ability to potentiate DA binding at the D4R [5]: no activity was observed
fold shift + 10 μM PAM ([6]; shift of DA IC50): 1.5 fold
ΔpIC50 + 10 μM PAM ([6]; shift of DA pIC50): 0.17 ± 0.09
SMILES: COc1cc(CO)c(F)cc1C(=O)n1ccc2c(F)cccc21 [D2 PAM2, [5-fluoro-4-(hydroxymethyl)-2-methoxyphenyl]-(4-fluoro-1H-indol-1-yl)methanone]
